“And” between values parts separate entries of the source, which are not always exact repeats. Equal entries are not always repeated.
System: 624824-186-R-J3-PDC multicell spheroids, viability
Experiment: Anticancer human tumor 624824-186-R-J3-PDC patient-derived colon adenocarcinoma cell line growth inhibition [PI3K]
Conditions: for viability, T/C: stronger effect = lower value; active means viability on the fitted dose curve at most 10% of control; inactive means the rest
Method in brief: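 We assembled tumor spheroids that included a stromal compartment of HUVEC and MSCs, then exposed them to targeted agents alone and together with PI3K pathway inhibitors. Concentration series descended by half-log from clinically achievable Cmax levels. Viability served as the endpoint.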
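Further: spheroids exposed to agents for seven days before luminescence read.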
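Wherever viability, T/C is given: luminescent signal used as a stand-in for spheroid viability; percent viability relative to DMSO vehicle control wells taken as 100%.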

CC(C)NCC(C(=O)N1CCN(c2ncnc3c2C(C)CC3O)CC1)c1ccc(Cl)cc1 (centres undefined)
inactive: viability, T/C (compound 0.0316 µM) 101% [middle of 4 runs] | viability, T/C (compound 0.1 µM) 101% [middle of 4 runs] | viability, T/C (compound 0.316 µM) 102% (2×) and 100% and 105% | viability, T/C (compound 1 µM) 82% [middle of 4 runs] | viability, T/C (compound 3.16 µM) 67.8% [middle of 4 runs] | viability, T/C (compound 10 µM) 57.8% [middle of 4 runs]
> 10000 nM and 6500 nM: IC50 (curve of compound)

CC(C)n1nc(-c2ccc3oc(N)nc3c2)c2c(N)ncnc21 + COc1c(OCCCN2CCOCC2)ccc2c3n(c(=NC(=O)c4cnc(N)nc4)nc12)CCN3
inactive: viability, T/C (second compound 0.00316 µM, first compound 0.000316 µM) 108% | viability, T/C (second compound 0.00316 µM, first compound 0.001 µM) 106% | viability, T/C (second compound 0.00316 µM, first compound 0.00316 µM) 106% | viability, T/C (second compound 0.00316 µM, first compound 0.01 µM) 99.2% | viability, T/C (second compound 0.00316 µM, first compound 0.0316 µM) 89.1% | viability, T/C (second compound 0.00316 µM, first compound 0.1 µM) 52.6% | viability, T/C (second compound 0.01 µM, first compound 0.000316 µM) 101% | viability, T/C (second compound 0.01 µM, first compound 0.001 µM) 102% | viability, T/C (second compound 0.01 µM, first compound 0.00316 µM) 109% | viability, T/C (second compound 0.01 µM, first compound 0.01 µM) 95.9% | viability, T/C (second compound 0.01 µM, first compound 0.0316 µM) 82.2% | viability, T/C (second compound 0.01 µM, first compound 0.1 µM) 52.2% | viability, T/C (second compound 0.0316 µM, first compound 0.000316 µM) 97.8% | viability, T/C (second compound 0.0316 µM, first compound 0.001 µM) 96.7% | viability, T/C (second compound 0.0316 µM, first compound 0.00316 µM) 91.9% | viability, T/C (second compound 0.0316 µM, first compound 0.01 µM) 92.3% | viability, T/C (second compound 0.0316 µM, first compound 0.0316 µM) 63.6% | viability, T/C (second compound 0.0316 µM, first compound 0.1 µM) 39.2% | viability, T/C (second compound 0.1 µM, first compound 0.000316 µM) 83.2% | viability, T/C (second compound 0.1 µM, first compound 0.001 µM) 80.2% | viability, T/C (second compound 0.1 µM, first compound 0.00316 µM) 80.2% | viability, T/C (second compound 0.1 µM, first compound 0.01 µM) 72.1% | viability, T/C (second compound 0.1 µM, first compound 0.0316 µM) 48.3% | viability, T/C (second compound 0.1 µM, first compound 0.1 µM) 27.5% | viability, T/C (second compound 0.316 µM, first compound 0.000316 µM) 53.5% | viability, T/C (second compound 0.316 µM, first compound 0.001 µM) 48.6% | viability, T/C (second compound 0.316 µM, first compound 0.00316 µM) 51.1% | viability, T/C (second compound 0.316 µM, first compound 0.01 µM) 39.2% | viability, T/C (second compound 0.316 µM, first compound 0.0316 µM) 31.5% | viability, T/C (second compound 0.316 µM, first compound 0.1 µM) 22.2% | viability, T/C (second compound 1 µM, first compound 0.000316 µM) 28.5% | viability, T/C (second compound 1 µM, first compound 0.001 µM) 28.8% | viability, T/C (second compound 1 µM, first compound 0.00316 µM) 31.4% | viability, T/C (second compound 1 µM, first compound 0.01 µM) 23.9% | viability, T/C (second compound 1 µM, first compound 0.0316 µM) 24.9% | viability, T/C (second compound 1 µM, first compound 0.1 µM) 18.6%
60.2 nM: IC50 (curve of first compound, second compound 0.0316 µM)
< 0.316 nM: IC50 (curve of first compound, second compound 1 µM)
> 100 nM: IC50 (curve of first compound, second compound 0.00316 µM) | IC50 (curve of first compound, second compound 0.01 µM)
29.2 nM: IC50 (curve of first compound, second compound 0.1 µM)
1.66 nM: IC50 (curve of first compound, second compound 0.316 µM)

— PubChem BioAssay AID1963977 (Molecular Pharmacology Branch, DTP, NCI, 2024)
